# Experimental data: patent US8568755B2 (priority 2007, dated 2013)
# Several values for one entry are separate records, joined by “and”; a condition that tells them apart may be missing. Identical values can stand only once. Counter-ions that a name gives are not always drawn. Like-named read-outs stand apart in the source and are kept apart here.
# How the values were obtained:
# [1] = tested on: Sphaerotheca fuliginea; assay type: in vivo
# [2] = tested on: Erysiphe graminis; assay: Test on preventive effect against wheat powdery mildew (Test Example 1); assay type: in vivo
# [3] = partner fungicide alone 125 ppm
# [4] = partner fungicide alone 250 ppm
# [5] = partner fungicide alone 0.125 ppm
# [6] = partner fungicide alone 0.5 ppm
# [7] = partner fungicide alone 500 ppm
compound,measurement,setting,value
mancozeb,diseased area ratio to non-treated section,[1]; [3],50.0
same,diseased area ratio to non-treated section,[1]; [4],31.3
Cc1cc(C)nc(Nc2ccccc2)n1 [pyrimethanil],diseased area ratio to non-treated section,[1]; partner fungicide alone 25 ppm,90.0
"COc1cc(C)c(C(=O)c2c(OC)cnc(Cl)c2C(F)(F)F)c(OC)c1OC [Compound B, 4-(2,3,4-trimethoxy-6-methylbenzoyl)-2-chloro-3-trifluoromethyl-5-methoxypyridine]",diseased area ratio to non-treated section,[2]; [5],50.0
same,diseased area ratio to non-treated section,[2]; [6],30.0
CO/C=C(/C(=O)OC)c1ccccc1Oc1cc(Oc2ccccc2C#N)ncn1 [azoxystrobin],diseased area ratio to non-treated section,[1]; partner fungicide alone 31 ppm,37.5 and 55.0
same,diseased area ratio to non-treated section,[1]; partner fungicide alone 63 ppm,35.0 and 55.0
same,diseased area ratio to non-treated section,[1]; [3],35.0
CCCN(CC)CC1COC2(CCC(C(C)(C)C)CC2)O1 (stereo not drawn) [spiroxamine],diseased area ratio to non-treated section,[2]; fungicide (b) alone 12.5 ppm,97.0
same,diseased area ratio to non-treated section,[2]; fungicide (b) alone 25 ppm,15.2
same,diseased area ratio to non-treated section,[2]; fungicide (b) alone 50 ppm,6.1
CC(C)(C)C(O)(CCc1ccc(Cl)cc1)Cn1cncn1 (stereo not drawn) [tebuconazole],diseased area ratio to non-treated section,[2]; fungicide (b) alone 0.5 ppm,10.0
same,diseased area ratio to non-treated section,[2]; fungicide (b) alone 1 ppm,5.0
CC1(C)CCC(Cc2ccc(Cl)cc2)C1(O)Cn1cncn1 (stereo not drawn) [metconazole],diseased area ratio to non-treated section,[2]; fungicide (b) alone 0.0075 ppm,95.0
same,diseased area ratio to non-treated section,[2]; fungicide (b) alone 0.03 ppm,55.0
CC(C)Oc1ccc(C(=O)C(C)(C)NC(=O)c2ncccc2C(F)(F)F)cc1 [No. 7],diseased area ratio to non-treated section,[1]; Compound No.x alone 1 ppm,81.3
same,diseased area ratio to non-treated section,[1]; Compound No.x alone 2 ppm,75.0
same,diseased area ratio to non-treated section,[1]; Compound No.x alone 4 ppm,56.3
N#Cc1c[nH]cc1-c1cccc2c1OC(F)(F)O2 [fludioxonil],diseased area ratio to non-treated section,[2]; fungicide (b) alone 125 ppm,95.0
same,diseased area ratio to non-treated section,[2]; fungicide (b) alone 250 ppm,90.0
same,diseased area ratio to non-treated section,[2]; fungicide (b) alone 500 ppm,85.0
Cc1cc(O)no1 [hymexazol],diseased area ratio to non-treated section,[1]; partner fungicide alone 100 ppm,95.0
polyoxins,diseased area ratio to non-treated section,[1]; [3],40.0
same,diseased area ratio to non-treated section,[1]; [4],35.0
"COc1cc(C)c(C(=O)c2c(Cl)cnc(Cl)c2C(F)(F)F)c(OC)c1OC [Compound A, 4-(2,3,4-trimethoxy-6-methylbenzoyl)-2,5-dichloro-3-trifluoromethylpyridine]",diseased area ratio to non-treated section,[2]; [5],65
"CC(C)Oc1ccc(C(=O)C(C)(C)NC(=O)c2ncccc2C(F)(F)F)cc1 [Compound No. 7, N-[[4′-(2-propyloxy)-1,1-dimethyl]phenacyl]-3-trifluoromethyl-2-pyridinecarboxamide]",diseased area ratio to non-treated section,[2]; Compound (a) alone 8 ppm,30.0
same,diseased area ratio to non-treated section,[2]; Compound (a) alone 16 ppm,25.0
same,diseased area ratio to non-treated section,[2]; Compound (a) alone 31 ppm,4.0
"COc1cc(C)c(C(=O)c2c(OC)ncc(Br)c2Cl)c(OC)c1OC [Compound C, 3-(2,3,4-trimethoxy-6-methylbenzoyl)-5-bromo-4-chloro-2-methoxypyridine]",diseased area ratio to non-treated section,[2]; [5],37.5
same,diseased area ratio to non-treated section,[2]; [6],6.0
Cc1ccsc1C(=O)NC(C)(C)C(=O)c1ccc(Cl)c(Cl)c1 [No. 2],diseased area ratio to non-treated section,[1]; Compound No.x alone 2 ppm,70.0
same,diseased area ratio to non-treated section,[1]; Compound No.x alone 4 ppm,50.0 and 32.5
[Cl-].[Cu+2].[Cu+2].[OH-].[OH-].[OH-] [copper oxychloride],diseased area ratio to non-treated section,[1]; [4],25.0
same,diseased area ratio to non-treated section,[1]; [7],21.9
same,diseased area ratio to non-treated section,[1]; partner fungicide alone 1000 ppm,20.7 and 20.6
Cc1cccc2sc3nncn3c12 [tricyclazole],diseased area ratio to non-treated section,[2]; fungicide (b) alone 50 ppm,22.5
same,diseased area ratio to non-treated section,[2]; fungicide (b) alone 500 ppm,50.0
N=C(N)NCCCCCCCCNCCCCCCCCNC(=N)N [iminoctadine],diseased area ratio to non-treated section,[1]; partner fungicide alone 4 ppm,65.0
same,diseased area ratio to non-treated section,[1]; partner fungicide alone 8 ppm,45.0
same,diseased area ratio to non-treated section,[1]; partner fungicide alone 16 ppm,30.0
CCO[PH](=O)O [fosetyl-Al],diseased area ratio to non-treated section,[2]; fungicide (b) alone 500 ppm,97.5
same,diseased area ratio to non-treated section,[2]; fungicide (b) alone 1000 ppm,97.5
C/C=C/C(=O)Oc1c(C(C)CCCCCC)cc([N+](=O)[O-])cc1[N+](=O)[O-] (stereo not drawn) [meptyldinocap],diseased area ratio to non-treated section (experimental value),[1]; single use at 3 ppm,2.5
CC(Cc1ccc(C(C)(C)C)cc1)CN1C[C@@H](C)O[C@@H](C)C1 (stereo partly drawn) [fenpropimorph],diseased area ratio to non-treated section,[2]; fungicide (b) alone 12.5 ppm,36.4
same,diseased area ratio to non-treated section,[2]; fungicide (b) alone 25 ppm,9.1
CO/N=C(/C(=O)OC)c1ccccc1COc1ccccc1C [kresoxim-methyl],diseased area ratio to non-treated section,[2]; fungicide (b) alone 12.5 ppm,4.9
same,diseased area ratio to non-treated section,[2]; fungicide (b) alone 25 ppm,1.8
O=C1c2ccccc2C(=O)N1SC(Cl)(Cl)Cl [folpet],diseased area ratio to non-treated section,[1]; [3],84.4
same,diseased area ratio to non-treated section,[1]; [4],84.4
same,diseased area ratio to non-treated section,[1]; [7],81.3
CNC(=O)/C(=N/OC)c1ccccc1COc1cc(C)ccc1C [dimoxystrobin],diseased area ratio to non-treated section,[2]; fungicide (b) alone 5 ppm,5.0
CON=C(C(=O)OC)c1ccccc1CON=C(C)c1cccc(C(F)(F)F)c1 [trifloxystrobin],diseased area ratio to non-treated section,[1]; partner fungicide alone 4 ppm,85.0
same,diseased area ratio to non-treated section,[1]; partner fungicide alone 200 ppm,50.0
same,diseased area ratio to non-treated section (experimental value),[1]; single use at 4 ppm,85.0
same,diseased area ratio to non-treated section (experimental value),[1]; single use at 200 ppm,50.0
C[C@H]1O[C@H](O[C@H]2[C@H](O)[C@@H](O)[C@@H](O)[C@H](O)[C@@H]2O)[C@@H](N)C[C@@H]1NC(=N)C(=O)O [kasugamycin],diseased area ratio to non-treated section,[2]; fungicide (b) alone 50 ppm,97.5
same,diseased area ratio to non-treated section,[2]; fungicide (b) alone 500 ppm,55.0
"COc1cc(C)c(C(=O)c2c(OC)ncc(Cl)c2C)c(OC)c1OC [Compound D, 3-(2,3,4-trimethoxy-6-methylbenzoyl)-5-chloro-2-methoxy-4-methylpyridine]",diseased area ratio to non-treated section,[2]; partner fungicide alone 0.06 ppm,27.5
same,diseased area ratio to non-treated section,[2]; [5],15.0
N#Cc1c(Cl)c(Cl)c(Cl)c(C#N)c1Cl [chlorothalonil],diseased area ratio to non-treated section,[1]; partner fungicide alone 4 ppm,77.5
same,diseased area ratio to non-treated section,[1]; partner fungicide alone 16 ppm,37.5
CC(C)NC(=O)N1CC(=O)N(c2cc(Cl)cc(Cl)c2)C1=O [iprodione],diseased area ratio to non-treated section,[1]; [3],60.0
same,diseased area ratio to non-treated section,[1]; [4],45.0
same,diseased area ratio to non-treated section,[1]; [7],45.0
"COc1cc(C)c(C(=O)c2c(OC)ccc(Br)c2C)c(OC)c1OC [metrafenone, 3′-bromo-2,3,4,6′-tetramethoxy-2′,6-dimethylbenzophenone]",diseased area ratio to non-treated section,[2]; fungicide (b) alone 0.0075 ppm,100
same,diseased area ratio to non-treated section,[2]; fungicide (b) alone 0.03 ppm,35.0
Cc1cc(C2CC2)nc(Nc2ccccc2)n1 [cyprodinil],diseased area ratio to non-treated section,[2]; fungicide (b) alone 31 ppm,75.0
same,diseased area ratio to non-treated section,[2]; fungicide (b) alone 63 ppm,70.0
same,diseased area ratio to non-treated section,[2]; fungicide (b) alone 125 ppm,32.5
CC(C1CC1)C(O)(Cn1cncn1)c1ccc(Cl)cc1 (stereo not drawn) [cyproconazole],diseased area ratio to non-treated section,[2]; fungicide (b) alone 0.125 ppm,97.5
same,diseased area ratio to non-treated section,[2]; fungicide (b) alone 0.5 ppm,60.0
potassium phosphite,diseased area ratio to non-treated section (experimental value),[1]; single use at 100 ppm,85.0
same,diseased area ratio to non-treated section (experimental value),[1]; single use at 500 ppm,80.0
COC(=O)NC(=S)Nc1ccccc1NC(=S)NC(=O)OC [thiophanate-methyl],diseased area ratio to non-treated section,[1]; partner fungicide alone 63 ppm,75.0
same,diseased area ratio to non-treated section,[1]; [3],65.0
COc1ccc(C(=CC(=O)N2CCOCC2)c2ccc(Cl)cc2)cc1OC [dimethomorph],diseased area ratio to non-treated section (experimental value),[1]; single use at 500 ppm,95.0
COC(=O)N(OC)c1ccccc1COc1ccn(-c2ccc(Cl)cc2)n1 [pyraclostrobin],diseased area ratio to non-treated section (experimental value),[1]; single use at 100 ppm,100
CCCCC(O)(Cn1cncn1)c1ccc(Cl)cc1Cl (stereo not drawn) [hexaconazole],diseased area ratio to non-treated section,[1]; partner fungicide alone 2 ppm,95.0
same,diseased area ratio to non-treated section,[1]; partner fungicide alone 4 ppm,85.0
same,diseased area ratio to non-treated section,[1]; partner fungicide alone 8 ppm,75.0
Cc1cc(OC(C)C)ccc1C(=O)C(C)(C)NC(=O)c1ncccc1C(F)(F)F [No. 4],diseased area ratio to non-treated section,[2]; Compound No.x alone 16 ppm,17.5
same,diseased area ratio to non-treated section,[2]; Compound No.x alone 31 ppm,17.5
same,diseased area ratio to non-treated section,[2]; Compound No.x alone 63 ppm,15.0 and 7.5
same,diseased area ratio to non-treated section,[2]; Compound No.x alone 125 ppm,5.0
"CC(=O)c1c(C)c(C)nc2c(F)cc(C(C)(C)C)cc12 [compound β, 2,3-dimethyl-6-t-butyl-8-fluoro-4-acetylquinoline]",diseased area ratio to non-treated section,[2]; fungicide (b) alone 10 ppm,95.0
CC1(C(=O)Nc2ccc(O)c(Cl)c2Cl)CCCCC1 [fenhexamid],diseased area ratio to non-treated section,[1]; [3],52.5
same,diseased area ratio to non-treated section,[1]; [4],52.5
same,diseased area ratio to non-treated section,[1]; [7],50.0
COP(=S)(OC)Oc1c(Cl)cc(C)cc1Cl [tolclofosmethyl],diseased area ratio to non-treated section (experimental value),[1]; single use at 100 ppm,80.0
CC#Cc1cc(C)nc(Nc2ccccc2)n1 [mepanipyrim],diseased area ratio to non-treated section,[1]; partner fungicide alone 63 ppm,0.5
same,diseased area ratio to non-treated section,[1]; [3],0.5
"Cc1ccc(-c2c(Cl)nc(C#N)n2S(=O)(=O)N(C)C)cc1 [cyazofamid, reference compound]",diseased area ratio to non-treated section,[1]; fungicide (b) alone 63 ppm,80.0
same,diseased area ratio to non-treated section,[1]; fungicide (b) alone 125 ppm,57.5
same,diseased area ratio to non-treated section,[1]; partner fungicide alone 63 ppm,70.0
same,diseased area ratio to non-treated section,[1]; [3],57.5
CC12CC1(C)C(=O)N(c1cc(Cl)cc(Cl)c1)C2=O (stereo not drawn) [procymidone],diseased area ratio to non-treated section,[1]; [3],85.0
same,diseased area ratio to non-treated section,[1]; [4],82.5
same,diseased area ratio to non-treated section,[1]; [7],70.0
CCCOC/C(=N\c1ccc(Cl)cc1C(F)(F)F)n1ccnc1 [triflumizole],diseased area ratio to non-treated section,[1]; partner fungicide alone 3 ppm,85
same,diseased area ratio to non-treated section,[1]; partner fungicide alone 12 ppm,70
CC1COC(Cn2cncn2)(c2ccc(Oc3ccc(Cl)cc3)cc2Cl)O1 (stereo not drawn) [difenoconazole],diseased area ratio to non-treated section,[1]; partner fungicide alone 8 ppm,31.3
same,diseased area ratio to non-treated section,[1]; partner fungicide alone 16 ppm,9.4
same,diseased area ratio to non-treated section,[1]; partner fungicide alone 31 ppm,8.1
O=C([O-])O.[K+] [potassium bicarbonate],diseased area ratio to non-treated section (experimental value),[1]; single use at 100 ppm,25.0
same,diseased area ratio to non-treated section (experimental value),[1]; single use at 1000 ppm,20.0
CCCOC(=O)NCCCN(C)C [propamocarb hydrochloride],diseased area ratio to non-treated section (experimental value),[1]; single use at 10 ppm,95.0
same,diseased area ratio to non-treated section (experimental value),[1]; single use at 100 ppm,95.0
same,diseased area ratio to non-treated section (experimental value),[1]; single use at 1000 ppm,92.5
